Active and inactive are the calls of the source. The rule behind the calls is not given here.
Columns and labels:
[1] = Intrinsic clearance in C57Bl/6 mouse liver microsomes assessed per mg protein at 1 uM measured after 60 mins; assay type: ADME, Microsome; details: read-out: CLH
[2] = AUC(0 to last) in cynomolgus monkey plasma at 30 mg/kg, administered through oral gavage measured after 24 hrs; assay type: ADME, organism-based, Macaca fascicularis; parameters: dose 30 mg/kg, time 0 - last, route oral
[3] = target: T1, Toll-like receptor 8 (Homo sapiens) (UniProt Q9NR97); assay: Agonist activity at human TLR8 expressed in HEK293 cells assessed as measured after 6 hrs by NF-kappaB luciferase reporter gene assay; assay type: cell-based
T1 sequence (whole entry): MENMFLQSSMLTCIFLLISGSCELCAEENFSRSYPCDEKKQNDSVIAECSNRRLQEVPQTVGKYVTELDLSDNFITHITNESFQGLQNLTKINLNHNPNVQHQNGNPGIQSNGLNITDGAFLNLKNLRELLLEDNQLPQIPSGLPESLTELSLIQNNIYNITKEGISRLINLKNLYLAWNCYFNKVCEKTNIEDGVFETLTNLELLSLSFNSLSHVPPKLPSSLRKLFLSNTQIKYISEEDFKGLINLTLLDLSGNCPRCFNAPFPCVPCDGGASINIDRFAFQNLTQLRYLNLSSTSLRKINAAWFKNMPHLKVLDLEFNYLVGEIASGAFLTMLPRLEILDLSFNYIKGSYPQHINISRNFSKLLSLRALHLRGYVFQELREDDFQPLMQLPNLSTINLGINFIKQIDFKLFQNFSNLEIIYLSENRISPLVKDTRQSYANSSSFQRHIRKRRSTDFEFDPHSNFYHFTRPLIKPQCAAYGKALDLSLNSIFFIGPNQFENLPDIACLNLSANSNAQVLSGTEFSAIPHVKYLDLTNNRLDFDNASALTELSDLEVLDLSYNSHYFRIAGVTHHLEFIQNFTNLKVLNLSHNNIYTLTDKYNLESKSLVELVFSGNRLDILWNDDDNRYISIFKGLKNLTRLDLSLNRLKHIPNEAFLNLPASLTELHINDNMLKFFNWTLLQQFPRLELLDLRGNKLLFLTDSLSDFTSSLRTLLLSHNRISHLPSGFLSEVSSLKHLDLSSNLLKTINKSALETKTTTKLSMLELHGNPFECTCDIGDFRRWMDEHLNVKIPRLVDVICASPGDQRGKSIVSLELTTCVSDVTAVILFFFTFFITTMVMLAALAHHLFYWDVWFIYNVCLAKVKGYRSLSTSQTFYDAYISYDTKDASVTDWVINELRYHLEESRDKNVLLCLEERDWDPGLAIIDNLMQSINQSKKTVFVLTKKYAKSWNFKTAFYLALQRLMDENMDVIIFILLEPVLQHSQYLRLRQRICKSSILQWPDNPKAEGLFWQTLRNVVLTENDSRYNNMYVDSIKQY

[4] = target: Toll-like receptor 5 (Homo sapiens) (UniProt O60602); assay: Agonist activity at wild-type human TLR5 expressed in HEK293 cells up to 25 uM measured after 6 hrs by NF-kappaB luciferase reporter gene assay; assay type: cell-based
Sequence of Toll-like receptor 5 (Homo sapiens) (O60602 whole entry): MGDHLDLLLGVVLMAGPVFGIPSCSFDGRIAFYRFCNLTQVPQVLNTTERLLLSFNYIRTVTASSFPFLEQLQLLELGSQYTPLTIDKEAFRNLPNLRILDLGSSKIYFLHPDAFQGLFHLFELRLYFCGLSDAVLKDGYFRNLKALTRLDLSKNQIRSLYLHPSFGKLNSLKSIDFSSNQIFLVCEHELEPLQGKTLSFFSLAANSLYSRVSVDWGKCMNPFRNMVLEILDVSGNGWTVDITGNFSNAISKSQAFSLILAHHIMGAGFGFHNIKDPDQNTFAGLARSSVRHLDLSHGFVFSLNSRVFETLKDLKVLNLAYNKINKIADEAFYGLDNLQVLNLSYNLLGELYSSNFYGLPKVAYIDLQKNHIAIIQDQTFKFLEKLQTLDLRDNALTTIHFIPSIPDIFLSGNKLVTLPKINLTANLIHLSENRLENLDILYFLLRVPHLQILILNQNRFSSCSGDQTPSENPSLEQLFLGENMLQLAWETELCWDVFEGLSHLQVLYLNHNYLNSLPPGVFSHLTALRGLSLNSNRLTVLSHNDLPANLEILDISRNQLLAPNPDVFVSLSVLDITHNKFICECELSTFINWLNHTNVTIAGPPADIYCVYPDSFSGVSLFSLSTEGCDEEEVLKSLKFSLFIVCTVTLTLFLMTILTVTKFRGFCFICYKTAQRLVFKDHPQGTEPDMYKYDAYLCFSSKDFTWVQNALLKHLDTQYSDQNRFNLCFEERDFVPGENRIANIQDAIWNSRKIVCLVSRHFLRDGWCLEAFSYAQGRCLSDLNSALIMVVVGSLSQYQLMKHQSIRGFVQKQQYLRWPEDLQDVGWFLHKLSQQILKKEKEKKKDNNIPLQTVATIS

[5] = Tmax in cynomolgus monkey plasma at 30 mg/kg, administered through oral gavage measured after 24 hrs; assay type: ADME, organism-based, Macaca fascicularis
[6] = Oral bioavailability in cynomolgus monkey at 30 mg/kg, measured after 24 hrs; assay type: ADME, organism-based, Macaca fascicularis; details: in vivo
[7] = Intrinsic clearance in Sprague-Dawley rat liver microsomes assessed per mg protein at 1 uM measured after 60 mins; assay type: ADME, Microsome; details: read-out: CLH
[8] = system: human MDR1; assay: Apparent permeability across apical to basolateral side in MDCK cells expressing human MDR1 at 1 uM by LC-MS/MS analysis; assay type: ADME, cell-based, Canis lupus familiaris; details: dog

microsomal CLint at 1 µM [1]: 5 µL/min/mg | AUC(0-t) at 24 h [2]: 583 ng·h/mL | LED [3]: 1.6 µM | Activity [4]: inactive | Tmax [5]: 1 to 2 h | bioavailability [6]: 3.9% | microsomal CLint at 1 µM [7]: 60 µL/min/mg | Papp A→B at 1 µM [8]: 23 ×10⁻⁶ cm/s
SMILES: CCCC[C@@H](CCO)Nc1nc(N)ncc1OC
